Measurements from article PMC4838304, “Effective Design of Multifunctional Peptides by Combining Compatible Functions” (PLoS Computational Biology, 2016).
Ends that are not written are not given here.

Tests used:
[1] = tested on: pGREG546 plasmid; assay: Electrophoretic mobility shift assay (EMSA), DNA retention; format: binding; settings: 1μg pGREG546, DNA to peptide charge ratio 1:1 or 1:4, 30 minutes
From the text: To test the ability of the designed peptides to bind nucleic acids, we evaluated by electrophoretic mobility shift assays (EMSAs) the retention of DNA by the designed peptides. Each EMSA was executed with peptide quantities that were multiples of the DNA to peptide charge ratio. A DNA to peptide charge ratio of 1:1 is represented by the number of positive charges of the peptide required to neutralize the negative charges of the DNA backbone. Retention in the gel is an indirect measure of the fraction of positive charges within the peptide participating in binding the DNA molecules. All EMSA assays were performed using the yeast plasmid pGREG546. As negative control, pGREG546 without any peptide was used, and as positive control the known DNA-binding cell penetrating peptide MPG was used. […] However, retention in the gel was observed when NLS was joined to any larger peptide fragment.
Fig 4 DNA binding. (A) Quantification of DNA retention obtained from three independent electrophoretic mobility shift assays. All measurements are shown and horizontal bars denote the sample mean. Representative gels are shown in (B-C).
1μg of pGREG546 plasmid was pre-incubated with the required quantity of each peptide to result in a 1:1 or 1:4 peptide charge to DNA charge ratio. Samples were incubated for 30 minutes and loaded on a 1% Agarose gel in SB buffer. DNA affinity was quantified by measuring the mean pixel intensity of the DNA bands with Fiji (http://fiji.sc) and normalizing to the intensity range between an empty spot on the gel and the intensity of the pGREG546 plasmid without any added peptide. Analysis scripts for the EMSA experiments as well as the raw data can be found with the distributed source code at http://bis.ifc.unam.mx/software/dcf.

[2] = Circular dichroism, secondary structure content (CONTIN/LL); format: physicochemical; settings: for Secondary Structure Random coil / Secondary Structure α-Helix / Secondary Structure β-Sheet: 0.3mg in 1mL, 20°C, far-UV CD, CONTIN/LL
Description: We studied the structural properties of the peptides in vitro, using circular dichroism (see Materials and Methods). The far-UV CD spectra for NLS-CE, NLS-α and NLS-α-CE in water matched the characteristics of a random coil conformation.
Circular dichroism spectra were recorded on a ChirascanTM CD Spectrometer (Applied Photophysics, UK) equipped with a peltier temperature controller. 0.3mg of each peptide was dissolved in 1mL of water or 50% aqueous trifluoroethanol and placed in quartz cuvettes of 0.1cm path length. Far-UV CD spectra were collected from 185 to 250 nm at 20°C. Spectra were averaged over 5 scans and the averaged blank spectra of solvents were subtracted. Ellipticity is reported as mean residue molar ellipticity and recorded in terms of molar elipticity [θ] (deg cm^2 dmol^−1). CONTIN/LL within the CDPro analysis software program was used to estimate the secondary structure content of the peptides.

Sequence | DNA binding in EMSA, in words [1] | Secondary Structure Random coil ([2]; 50% TFE) [%] | Secondary Structure α-Helix ([2]; 50% TFE) [%] | Secondary Structure β-Sheet ([2]; 50% TFE) [%] | aggregation suggested by decrease in negative ellipticity ([2]; 50% TFE, CD spectra) | Secondary Structure Random coil ([2]; water) [%] | Secondary Structure α-Helix ([2]; water) [%] | Secondary Structure β-Sheet ([2]; water) [%]
FRKWRRKPKKKRKVWWRKVKRRWHWLQLKPGQPMY [NLS-α-CE] | effective DNA-binding activity | 59 | 10 | 31 | TFE promoted aggregation of the peptides | 64 | 6 | 30
KRRWRFVWMNPKKKRKVPPWPYLLWWHWLQLKPGQPMY [chimera] | effective DNA-binding activity | 48 | 24 | 28 |  | 59 | 8 | 33
